From ChEMBL document CHEMBL1201862, “PubChem BioAssay data set” (2004)
Several values for one entry are separate records, joined by “and”; a condition that tells them apart may be missing. Identical values can stand only once.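 Five compound concentrations were applied to cells in 96-well plates for 48 hours; endpoints were derived by simple linear interpolation of the resulting dose-response curve. Here, GI50 denotes the concentration required for 50% inhibition of growth.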 Activity calls are given as the source filed them. Cut-off read from the data, not from the text of the source: active = GI50 up to about 1.1 µM and inactive = higher.

Tests used:
Experiment in all cases: NCI-60 cell line screen, 48 h
[1] = tested on: CAKI-1
[2] = tested on: SK-MEL-5
[3] = tested on: MOLT-4
[4] = tested on: UACC-62
[5] = tested on: SW-620
[6] = tested on: A498
[7] = tested on: SF-268
[8] = tested on: A549
[9] = tested on: SK-MEL-2
[10] = tested on: U-251
[11] = tested on: MDA-MB-231
[12] = tested on: EKVX
[13] = tested on: LOX IMVI
[14] = tested on: NCI-H522
[15] = tested on: SF-539
[16] = tested on: HL-60
[17] = tested on: MDA-N
[18] = tested on: OVCAR-4
[19] = tested on: SK-MEL-28
[20] = tested on: T47D
[21] = tested on: SF-295
[22] = tested on: CCRF-CEM
[23] = tested on: BT-549
[24] = tested on: SNB-19
[25] = tested on: IGROV-1
[26] = tested on: 786-0
[27] = tested on: OVCAR-8
[28] = tested on: K562
[29] = tested on: HCC 2998
[30] = tested on: DU-145
[31] = tested on: RPMI-8226
[32] = tested on: HCT-116
[33] = tested on: RXF 393
[34] = tested on: NCI-H226
[35] = tested on: SR
[36] = tested on: M14
[37] = tested on: UACC-257
[38] = tested on: HT-29
[39] = tested on: HCT-15
[40] = tested on: NCI-H23
[41] = tested on: NCI-H460
[42] = tested on: MDA-MB-435
[43] = tested on: SNB-75
[44] = tested on: MCF7
[45] = tested on: SN12C
[46] = tested on: PC-3
[47] = tested on: OVCAR-5
[48] = tested on: HOP-62
[49] = tested on: UO-31
[50] = tested on: OVCAR-3
[51] = tested on: TK-10
[52] = tested on: ACHN
[53] = tested on: Malme-3M

With `O/N=C/C1C(OCc2ccccc2)C(OCc2ccccc2)C(OCc2ccccc2)CN1Cc1ccccc1` (stereo unspecified) the GI50 [1] was 2.74 µM (inactive), the GI50 [2] was 11.7 µM (inactive) and the GI50 [3] was 2.77 µM (inactive) and 1.52 µM (inactive). The GI50 [4] was 13.9 µM (inactive) and 18.7 µM (inactive), the GI50 [5] was 5.41 µM (inactive) and 10.2 µM (inactive) and the GI50 [6] was 5.2 µM (inactive). The GI50 [7] was 16.7 µM (inactive) and > 10 µM (inactive), the GI50 [8] was 4.44 µM (inactive) and 7.87 µM (inactive) and the GI50 [9] was 19.6 µM (inactive). The GI50 [10] was 9.16 µM (inactive) and 15.5 µM (inactive), the GI50 [11] was 4.15 µM (inactive) and the GI50 [12] was 41.2 µM (inactive). For the same molecule, the GI50 [13] was 10.6 µM (inactive) and 6 µM (inactive), the GI50 [14] was 9.55 µM (inactive) and the GI50 [15] was 7.26 µM (inactive). The GI50 [16] was 13.1 µM (inactive), the GI50 [17] was 16 µM (inactive) and 12.4 µM (inactive) and the GI50 [18] was 6.41 µM (inactive). For the same molecule, the GI50 [19] was 14.3 µM (inactive) and 15.2 µM (inactive), the GI50 [20] was 5.26 µM (inactive) and the GI50 [21] was 6.15 µM (inactive) and 10.7 µM (inactive). The GI50 [22] was 3.37 µM (inactive) and 3.65 µM (inactive), the GI50 [23] was 15.3 µM (inactive) and the GI50 [24] was 29.4 µM (inactive) and 38.8 µM (inactive). The GI50 [25] was 22.1 µM (inactive) and 34 µM (inactive), the GI50 [26] was 8.99 µM (inactive) and 5.94 µM (inactive) and the GI50 [27] was 16 µM (inactive) and 13.1 µM (inactive). The GI50 [28] was 3.82 µM (inactive) and 4.53 µM (inactive), the GI50 [29] was 7.48 µM (inactive) and the GI50 [30] was 35.2 µM (inactive) and 60.4 µM (inactive). For the same molecule, the GI50 [31] was 22.6 µM (inactive), the GI50 [32] was 3.89 µM (inactive) and 4.97 µM (inactive) and the GI50 [33] was 3.51 µM (inactive).
With `CCOC(=O)CCC(NC(=O)OCc1ccccc1)C(=O)NC(CCC(=O)OCC)C(=O)NC(CCC(=O)OCC)C(=O)NC(CCC(=O)OCC)C(=O)NC(CCC(=O)OCC)C(=O)NC(CCC(=O)OCC)C(=O)NC(CCC(=O)OCC)C(=O)OCC` (stereo unspecified) the GI50 [34] was > 100 µM (inactive), the GI50 [1] was > 100 µM (inactive) and the GI50 [2] was > 100 µM (inactive). The GI50 [3] was > 100 µM (inactive), the GI50 [35] was 70.8 µM (inactive) and the GI50 [4] was > 100 µM (inactive). For the same molecule, the GI50 [5] was > 100 µM (inactive), the GI50 [6] was 84.9 µM (inactive) and the GI50 [36] was > 100 µM (inactive). The GI50 [37] was > 100 µM (inactive), the GI50 [7] was > 100 µM (inactive) and the GI50 [8] was > 100 µM (inactive). For the same molecule, the GI50 [38] was > 100 µM (inactive), the GI50 [9] was > 100 µM (inactive) and the GI50 [39] was greater than 100 µM. For the same molecule, the GI50 [40] was > 100 µM (inactive), the GI50 [10] was > 100 µM (inactive) and the GI50 [11] was > 100 µM (inactive). The GI50 [41] was > 100 µM (inactive), the GI50 [13] was > 100 µM (inactive) and the GI50 [42] was > 100 µM (inactive). For the same molecule, the GI50 [14] was 43.5 µM (inactive), the GI50 [43] was 40.5 µM (inactive) and the GI50 [44] was > 100 µM (inactive). For the same molecule, the GI50 [16] was > 100 µM (inactive), the GI50 [17] was > 100 µM (inactive) and the GI50 [45] was > 100 µM (inactive). For the same molecule, the GI50 [18] was > 100 µM (inactive), the GI50 [19] was > 100 µM (inactive) and the GI50 [46] was > 100 µM (inactive). The GI50 [20] was > 100 µM (inactive), the GI50 [47] was > 100 µM (inactive) and the GI50 [48] was > 100 µM (inactive). The GI50 [49] was 79.4 µM (inactive), the GI50 [22] was 72.9 µM (inactive) and the GI50 [23] was > 100 µM (inactive). The GI50 [24] was > 100 µM (inactive), the GI50 [50] was 86.9 µM (inactive) and the GI50 [26] was > 100 µM (inactive). For the same molecule, the GI50 [27] was > 100 µM (inactive), the GI50 [28] was > 100 µM (inactive) and the GI50 [29] was 26.1 µM (inactive). For the same molecule, the GI50 [30] was > 100 µM (inactive), the GI50 [31] was > 100 µM (inactive) and the GI50 [51] was > 100 µM (inactive). The GI50 [52] was > 100 µM (inactive), the GI50 [32] was > 100 µM (inactive) and the GI50 [53] was 90.6 µM (inactive).
